{
  "source": "paper PMC10004634",
  "about": "(PLOS ONE, 2023)",
  "assay_in_all_cases": "biochemical",
  "set-up_in_all_cases": "KINOMEscan scanMAX competition binding, DNA-tagged kinases, qPCR read-out, percent control at 300 nM",
  "key": {"AKT3": {"target": "AKT3 (Homo sapiens, UniProt Q9Y243)", "sequence (Q9Y243 whole entry)": "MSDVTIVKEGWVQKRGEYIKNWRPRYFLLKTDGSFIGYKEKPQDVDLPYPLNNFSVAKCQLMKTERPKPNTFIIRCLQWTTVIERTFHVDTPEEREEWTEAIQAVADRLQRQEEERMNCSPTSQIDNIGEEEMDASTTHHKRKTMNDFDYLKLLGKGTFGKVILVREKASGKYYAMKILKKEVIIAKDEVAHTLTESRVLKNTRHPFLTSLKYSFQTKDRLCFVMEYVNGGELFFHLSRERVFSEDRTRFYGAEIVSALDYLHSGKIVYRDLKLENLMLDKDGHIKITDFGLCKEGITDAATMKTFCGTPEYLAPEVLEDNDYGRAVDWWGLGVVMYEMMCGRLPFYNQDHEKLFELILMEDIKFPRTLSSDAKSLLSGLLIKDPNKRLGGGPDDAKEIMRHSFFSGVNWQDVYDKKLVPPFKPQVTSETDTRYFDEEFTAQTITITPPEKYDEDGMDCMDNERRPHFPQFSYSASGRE"}, "BRAF": {"target": "BRAF (Homo sapiens, UniProt P15056)", "sequence (P15056 whole entry)": "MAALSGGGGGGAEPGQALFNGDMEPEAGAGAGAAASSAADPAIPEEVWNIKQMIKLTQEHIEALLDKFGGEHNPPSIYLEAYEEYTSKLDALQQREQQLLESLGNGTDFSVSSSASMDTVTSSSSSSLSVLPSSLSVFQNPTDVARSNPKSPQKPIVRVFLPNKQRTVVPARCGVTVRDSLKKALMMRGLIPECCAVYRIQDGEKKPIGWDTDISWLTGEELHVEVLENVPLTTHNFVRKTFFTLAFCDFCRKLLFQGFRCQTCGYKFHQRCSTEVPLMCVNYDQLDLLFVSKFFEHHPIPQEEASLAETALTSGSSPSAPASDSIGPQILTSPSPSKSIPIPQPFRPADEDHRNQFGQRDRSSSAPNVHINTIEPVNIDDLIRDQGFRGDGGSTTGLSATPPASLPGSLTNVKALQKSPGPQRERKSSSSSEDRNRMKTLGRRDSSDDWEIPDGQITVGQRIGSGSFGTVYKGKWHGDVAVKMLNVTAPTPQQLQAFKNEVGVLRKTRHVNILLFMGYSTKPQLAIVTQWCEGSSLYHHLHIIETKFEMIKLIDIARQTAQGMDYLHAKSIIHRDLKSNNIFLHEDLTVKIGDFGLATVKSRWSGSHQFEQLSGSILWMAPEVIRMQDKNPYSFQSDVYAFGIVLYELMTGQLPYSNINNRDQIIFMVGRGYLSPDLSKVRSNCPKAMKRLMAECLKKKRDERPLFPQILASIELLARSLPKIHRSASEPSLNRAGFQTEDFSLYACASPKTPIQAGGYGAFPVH"}, "CSNK1G3": {"target": "CSNK1G3 (Homo sapiens, UniProt Q9Y6M4)", "sequence (Q9Y6M4 whole entry)": "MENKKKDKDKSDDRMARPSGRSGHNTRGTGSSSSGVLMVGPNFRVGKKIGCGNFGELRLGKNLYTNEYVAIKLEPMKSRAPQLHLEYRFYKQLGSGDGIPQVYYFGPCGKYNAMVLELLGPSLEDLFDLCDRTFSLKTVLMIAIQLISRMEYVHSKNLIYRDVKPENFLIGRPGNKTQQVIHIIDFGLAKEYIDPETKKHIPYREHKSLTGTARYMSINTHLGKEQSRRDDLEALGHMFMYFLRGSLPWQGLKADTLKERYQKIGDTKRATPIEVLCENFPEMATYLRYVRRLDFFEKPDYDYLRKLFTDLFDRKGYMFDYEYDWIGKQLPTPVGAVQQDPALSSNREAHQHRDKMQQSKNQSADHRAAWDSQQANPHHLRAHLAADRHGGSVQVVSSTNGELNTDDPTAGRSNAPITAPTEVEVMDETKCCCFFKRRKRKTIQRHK"}, "DMPK2": {"target": "T1, DMPK2 (Homo sapiens, UniProt Q6DT37)", "T1 construct": "gene CDC42BPG"}, "[1]": {"target": "EGFR(L747-S752del, P753S) (Homo sapiens, UniProt P00533, DEL747-752/P753S)", "sequence (P00533 with tags, fused parts or gaps DEL747-752/P753S)": "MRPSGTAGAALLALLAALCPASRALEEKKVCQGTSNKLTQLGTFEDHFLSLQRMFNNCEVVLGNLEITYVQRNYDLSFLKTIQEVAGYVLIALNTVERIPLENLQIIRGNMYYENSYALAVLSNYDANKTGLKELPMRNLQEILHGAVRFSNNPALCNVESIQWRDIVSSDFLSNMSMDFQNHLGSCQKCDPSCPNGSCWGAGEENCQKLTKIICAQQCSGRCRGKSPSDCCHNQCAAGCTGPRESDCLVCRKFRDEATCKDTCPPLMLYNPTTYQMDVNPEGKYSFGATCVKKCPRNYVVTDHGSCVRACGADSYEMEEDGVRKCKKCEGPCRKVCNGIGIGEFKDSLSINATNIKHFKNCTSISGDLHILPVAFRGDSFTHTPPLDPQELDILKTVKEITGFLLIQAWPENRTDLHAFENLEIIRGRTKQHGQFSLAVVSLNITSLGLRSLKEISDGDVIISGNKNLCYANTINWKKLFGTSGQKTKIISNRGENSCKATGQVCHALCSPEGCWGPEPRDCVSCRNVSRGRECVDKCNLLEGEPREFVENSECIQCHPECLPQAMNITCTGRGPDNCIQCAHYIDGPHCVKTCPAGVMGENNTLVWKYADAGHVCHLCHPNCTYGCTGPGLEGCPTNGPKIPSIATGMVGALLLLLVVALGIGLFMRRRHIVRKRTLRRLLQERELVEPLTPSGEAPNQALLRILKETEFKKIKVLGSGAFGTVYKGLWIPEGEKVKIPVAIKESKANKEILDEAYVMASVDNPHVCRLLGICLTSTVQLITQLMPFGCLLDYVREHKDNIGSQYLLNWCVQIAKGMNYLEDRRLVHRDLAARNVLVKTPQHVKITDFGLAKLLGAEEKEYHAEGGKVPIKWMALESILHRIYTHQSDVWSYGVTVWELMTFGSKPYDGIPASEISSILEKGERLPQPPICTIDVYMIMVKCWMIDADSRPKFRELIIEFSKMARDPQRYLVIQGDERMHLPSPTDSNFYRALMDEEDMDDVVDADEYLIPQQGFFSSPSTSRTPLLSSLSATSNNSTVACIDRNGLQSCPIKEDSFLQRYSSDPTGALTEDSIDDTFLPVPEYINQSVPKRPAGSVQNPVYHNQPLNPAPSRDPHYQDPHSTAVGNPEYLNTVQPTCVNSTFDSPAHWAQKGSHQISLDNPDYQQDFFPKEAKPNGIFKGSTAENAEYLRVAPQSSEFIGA"}, "EPHA3": {"target": "T2, EPHA3 (Homo sapiens, UniProt P29320)", "T2 sequence (P29320 1-983)": "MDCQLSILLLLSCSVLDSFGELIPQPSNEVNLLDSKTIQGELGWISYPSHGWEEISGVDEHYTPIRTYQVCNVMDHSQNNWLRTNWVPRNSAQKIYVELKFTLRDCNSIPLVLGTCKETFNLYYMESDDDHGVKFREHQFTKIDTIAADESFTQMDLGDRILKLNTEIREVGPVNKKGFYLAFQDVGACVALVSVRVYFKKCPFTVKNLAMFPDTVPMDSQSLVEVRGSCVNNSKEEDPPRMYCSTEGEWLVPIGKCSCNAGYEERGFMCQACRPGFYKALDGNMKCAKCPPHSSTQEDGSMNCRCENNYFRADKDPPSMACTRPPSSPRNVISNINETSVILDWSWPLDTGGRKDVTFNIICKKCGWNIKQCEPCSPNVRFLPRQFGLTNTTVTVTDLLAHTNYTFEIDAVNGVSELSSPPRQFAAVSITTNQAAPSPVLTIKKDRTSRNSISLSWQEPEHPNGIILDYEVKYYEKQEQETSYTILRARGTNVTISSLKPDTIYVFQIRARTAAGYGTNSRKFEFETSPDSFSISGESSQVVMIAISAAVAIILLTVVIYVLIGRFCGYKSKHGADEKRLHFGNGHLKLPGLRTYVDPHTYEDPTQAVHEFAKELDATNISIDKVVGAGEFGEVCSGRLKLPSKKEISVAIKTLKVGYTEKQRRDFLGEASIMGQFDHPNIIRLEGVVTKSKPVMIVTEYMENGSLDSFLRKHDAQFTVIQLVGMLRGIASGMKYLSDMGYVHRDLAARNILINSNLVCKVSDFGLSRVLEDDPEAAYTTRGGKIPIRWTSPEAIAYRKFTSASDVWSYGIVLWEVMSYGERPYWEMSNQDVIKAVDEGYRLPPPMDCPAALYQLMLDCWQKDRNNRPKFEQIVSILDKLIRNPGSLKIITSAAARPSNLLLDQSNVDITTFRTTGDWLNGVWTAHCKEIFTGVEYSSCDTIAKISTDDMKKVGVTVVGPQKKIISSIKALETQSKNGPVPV"}, "ERK3": {"target": "T3, ERK3 (Homo sapiens, UniProt Q16659)", "T3 construct": "gene MAPK6"}, "MST1R": {"target": "MST1R (Homo sapiens, UniProt Q04912)"}, "PHKG1": {"target": "PHKG1 (Homo sapiens, UniProt Q16816)", "sequence (Q16816 whole entry)": "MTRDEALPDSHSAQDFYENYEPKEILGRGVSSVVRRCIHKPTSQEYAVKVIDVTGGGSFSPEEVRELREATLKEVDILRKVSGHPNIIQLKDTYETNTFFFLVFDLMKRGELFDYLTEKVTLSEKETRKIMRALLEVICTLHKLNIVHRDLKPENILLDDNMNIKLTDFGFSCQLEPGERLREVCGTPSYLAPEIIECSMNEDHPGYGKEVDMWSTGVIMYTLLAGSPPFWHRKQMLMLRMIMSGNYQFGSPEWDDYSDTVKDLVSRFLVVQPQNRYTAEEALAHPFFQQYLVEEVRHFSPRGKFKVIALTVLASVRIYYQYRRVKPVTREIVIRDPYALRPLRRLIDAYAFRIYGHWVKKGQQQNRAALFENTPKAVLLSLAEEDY"}, "RET(V804M)": {"target": "RET(V804M) (Homo sapiens, UniProt P07949, V804M)"}, "TEC": {"target": "T4, TEC (Homo sapiens, UniProt P42680)", "T4 sequence (P42680 1-631)": "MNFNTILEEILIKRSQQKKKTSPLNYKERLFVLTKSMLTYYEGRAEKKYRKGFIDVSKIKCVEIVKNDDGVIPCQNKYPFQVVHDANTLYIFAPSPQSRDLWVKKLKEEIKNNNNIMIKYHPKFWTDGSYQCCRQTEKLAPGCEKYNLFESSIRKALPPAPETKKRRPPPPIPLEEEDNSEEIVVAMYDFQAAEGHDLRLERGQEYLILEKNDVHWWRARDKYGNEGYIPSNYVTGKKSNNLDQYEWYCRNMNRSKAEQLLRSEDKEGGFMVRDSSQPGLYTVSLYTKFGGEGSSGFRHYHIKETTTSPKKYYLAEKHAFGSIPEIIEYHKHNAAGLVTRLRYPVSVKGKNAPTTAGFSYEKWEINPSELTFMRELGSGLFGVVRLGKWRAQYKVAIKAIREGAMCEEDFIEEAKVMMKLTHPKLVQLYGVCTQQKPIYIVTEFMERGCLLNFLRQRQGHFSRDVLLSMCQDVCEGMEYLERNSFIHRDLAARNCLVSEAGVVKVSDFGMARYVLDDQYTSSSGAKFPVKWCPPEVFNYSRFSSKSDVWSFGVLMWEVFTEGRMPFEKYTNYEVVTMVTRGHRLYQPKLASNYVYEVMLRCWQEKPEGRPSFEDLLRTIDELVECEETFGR"}, "TRKA": {"target": "T5, TRKA (Homo sapiens, UniProt P04629)", "T5 construct": "gene NTRK1", "T5 sequence (P04629 whole entry)": "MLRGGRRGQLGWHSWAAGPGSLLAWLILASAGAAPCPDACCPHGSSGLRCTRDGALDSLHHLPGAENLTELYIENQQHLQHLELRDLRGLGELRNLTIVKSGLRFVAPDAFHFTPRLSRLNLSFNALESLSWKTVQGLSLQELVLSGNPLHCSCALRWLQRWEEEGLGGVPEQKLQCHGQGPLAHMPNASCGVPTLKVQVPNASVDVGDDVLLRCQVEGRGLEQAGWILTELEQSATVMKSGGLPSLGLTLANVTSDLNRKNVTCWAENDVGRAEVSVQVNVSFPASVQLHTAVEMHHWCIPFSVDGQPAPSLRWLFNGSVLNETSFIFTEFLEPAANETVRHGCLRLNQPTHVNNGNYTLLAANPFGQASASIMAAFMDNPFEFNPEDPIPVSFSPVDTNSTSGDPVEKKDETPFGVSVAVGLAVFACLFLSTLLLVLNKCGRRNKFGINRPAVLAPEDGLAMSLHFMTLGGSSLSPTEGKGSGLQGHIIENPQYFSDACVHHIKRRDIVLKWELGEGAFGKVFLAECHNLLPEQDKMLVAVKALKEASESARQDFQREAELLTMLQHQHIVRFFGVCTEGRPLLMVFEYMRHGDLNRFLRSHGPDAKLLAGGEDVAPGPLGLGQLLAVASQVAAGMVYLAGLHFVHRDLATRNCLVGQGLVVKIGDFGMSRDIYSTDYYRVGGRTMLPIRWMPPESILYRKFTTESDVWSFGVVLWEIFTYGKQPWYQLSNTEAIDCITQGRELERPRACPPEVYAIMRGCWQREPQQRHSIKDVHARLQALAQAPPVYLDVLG"}, "[2]": {"details": "read-out: Percent control / Acalabrutinib"}, "[3]": {"details": "read-out: Percent control / Ibrutinib"}, "[4]": {"details": "read-out: Percent control / Tirabrutinib"}, "[5]": {"details": "read-out: Percent control / Zanubrutinib"}},
  "note": "Like-named read-outs stand apart in the source and are kept apart here.",
  "data": [
    {"smiles": "CC#CC(=O)N1CCC[C@H]1c1nc(-c2ccc(C(=O)Nc3ccccn3)cc2)c2c(N)nccn12", "note": "[Acalabrutinib]", "values": [
      {"measurement": "remaining binding at 0.3 µM", "setting": "AKT3; [2]", "value": 95, "unit": "%"},
      {"measurement": "remaining binding at 0.3 µM", "setting": "BRAF; [2]", "value": 85, "unit": "%"},
      {"measurement": "remaining binding at 0.3 µM", "setting": "CSNK1G3; [2]", "value": 91, "unit": "%"},
      {"measurement": "remaining binding at 0.3 µM", "setting": "DMPK2; [2]", "value": 91, "unit": "%"},
      {"measurement": "remaining binding at 0.3 µM", "setting": "[1]; [2]", "value": 99, "unit": "%"},
      {"measurement": "remaining binding at 0.3 µM", "setting": "EPHA3; [2]", "value": 74, "unit": "%"},
      {"measurement": "remaining binding at 0.3 µM", "setting": "ERK3; [2]", "value": 91, "unit": "%"},
      {"measurement": "remaining binding at 0.3 µM", "setting": "MST1R; [2]", "value": 91, "unit": "%"},
      {"measurement": "remaining binding at 0.3 µM", "setting": "PHKG1; [2]", "value": 92, "unit": "%"},
      {"measurement": "remaining binding at 0.3 µM", "setting": "RET(V804M); [2]", "value": 85, "unit": "%"},
      {"measurement": "remaining binding at 0.3 µM", "setting": "TEC; [2]", "value": 4.1, "unit": "%"},
      {"measurement": "remaining binding at 0.3 µM", "setting": "TRKA; [2]", "value": 88, "unit": "%"}
    ]},
    {"smiles": "C=CC(=O)N1CCC[C@@H](n2nc(-c3ccc(Oc4ccccc4)cc3)c3c(N)ncnc32)C1", "note": "[Ibrutinib]", "values": [
      {"measurement": "remaining binding at 0.3 µM", "setting": "BRAF; [3]", "value": 97, "unit": "%"},
      {"measurement": "remaining binding at 0.3 µM", "setting": "DMPK2; [3]", "value": 75, "unit": "%"},
      {"measurement": "remaining binding at 0.3 µM", "setting": "[1]; [3]", "value": 12, "unit": "%"},
      {"measurement": "remaining binding at 0.3 µM", "setting": "EPHA3; [3]", "value": 82, "unit": "%"},
      {"measurement": "remaining binding at 0.3 µM", "setting": "MST1R; [3]", "value": 90, "unit": "%"},
      {"measurement": "remaining binding at 0.3 µM", "setting": "RET(V804M); [3]", "value": 94, "unit": "%"},
      {"measurement": "remaining binding at 0.3 µM", "setting": "TEC; [3]", "value": 6, "unit": "%"},
      {"measurement": "remaining binding at 0.3 µM", "setting": "TRKA; [3]", "value": 82, "unit": "%"}
    ]},
    {"smiles": "CC#CC(=O)N1CC[C@@H](n2c(=O)n(-c3ccc(Oc4ccccc4)cc3)c3c(N)ncnc32)C1", "note": "[Tirabrutinib]", "values": [
      {"measurement": "remaining binding at 0.3 µM", "setting": "AKT3; [4]", "value": 83, "unit": "%"},
      {"measurement": "remaining binding at 0.3 µM", "setting": "CSNK1G3; [4]", "value": 99, "unit": "%"},
      {"measurement": "remaining binding at 0.3 µM", "setting": "DMPK2; [4]", "value": 87, "unit": "%"},
      {"measurement": "remaining binding at 0.3 µM", "setting": "[1]; [4]", "value": 88, "unit": "%"},
      {"measurement": "remaining binding at 0.3 µM", "setting": "EPHA3; [4]", "value": 92, "unit": "%"},
      {"measurement": "remaining binding at 0.3 µM", "setting": "ERK3; [4]", "value": 90, "unit": "%"},
      {"measurement": "remaining binding at 0.3 µM", "setting": "MST1R; [4]", "value": 98, "unit": "%"},
      {"measurement": "remaining binding at 0.3 µM", "setting": "PHKG1; [4]", "value": 83, "unit": "%"},
      {"measurement": "remaining binding at 0.3 µM", "setting": "TEC; [4]", "value": 7.8, "unit": "%"},
      {"measurement": "remaining binding at 0.3 µM", "setting": "TRKA; [4]", "value": 83, "unit": "%"}
    ]},
    {"smiles": "C=CC(=O)N1CCC([C@@H]2CCNc3c(C(N)=O)c(-c4ccc(Oc5ccccc5)cc4)nn32)CC1", "note": "[Zanubrutinib]", "values": [
      {"measurement": "remaining binding at 0.3 µM", "setting": "AKT3; [5]", "value": 84, "unit": "%"},
      {"measurement": "remaining binding at 0.3 µM", "setting": "BRAF; [5]", "value": 97, "unit": "%"},
      {"measurement": "remaining binding at 0.3 µM", "setting": "CSNK1G3; [5]", "value": 90, "unit": "%"},
      {"measurement": "remaining binding at 0.3 µM", "setting": "EPHA3; [5]", "value": 75, "unit": "%"},
      {"measurement": "remaining binding at 0.3 µM", "setting": "ERK3; [5]", "value": 98, "unit": "%"},
      {"measurement": "remaining binding at 0.3 µM", "setting": "MST1R; [5]", "value": 98, "unit": "%"},
      {"measurement": "remaining binding at 0.3 µM", "setting": "PHKG1; [5]", "value": 67, "unit": "%"},
      {"measurement": "remaining binding at 0.3 µM", "setting": "RET(V804M); [5]", "value": 94, "unit": "%"},
      {"measurement": "remaining binding at 0.3 µM", "setting": "TEC; [5]", "value": 20, "unit": "%"},
      {"measurement": "remaining binding at 0.3 µM", "setting": "TRKA; [5]", "value": 99, "unit": "%"}
    ]}
  ]
}
